The values that follow come from article PMC8347092, “Betulin, a Newly Characterized Compound in Acacia auriculiformis Bark, Is a Multi-Target Protein Kinase Inhibitor” (Molecules, 2021).

“And” between values parts separate entries of the source, which are not always exact repeats. Equal values may be shown once.

One series concerns the target Pim1 (Homo sapiens, UniProt P11309). Put plainly: ADP-Glo protein kinase assay, Pim1. The class given is biochemical. The conditions noted are these: for % of kinase activity that remained, Pim1: 10 µM ATP, normalized to DMSO control, mean n = 2. How it is done: (§1) Kinase enzymatic activities were assayed in 384-well plates using the ADP-Glo^TM assay kit, following the recommendations of the manufacturer (Promega, Madison, WI). Controls were performed in appropriate dilutions of dimethyl sulfoxide (DMSO). Kinase activities, measured in the presence of 10 µM ATP, are expressed as percentage of maximal activity, i.e., measured in the absence of inhibitor. In order to determine the half-maximal inhibitory concentration (IC50), the assays were performed in duplicate in the absence or presence of increasing doses of the tested compounds. Data were analyzed using GraphPad PRISM (GraphPad Software, San Diego, CA, USA) software to fit a sigmoïdal curve that allowed determination of the IC50 values. The experimental conditions used for measuring kinase activities are comprehensively described in Ibrahim et al.. Human recombinant ABL1 mutant (T315I) was purchased from Promega (Catalog # V5320) and tested following the recommendations of the manufacturer (Promega, Madison, WI, USA).
A general note: ADP-Glo first removes unused ATP, then detects ADP through luciferase.

For series [1] the following is noted: cited from earlier work.
Series [2] has as its system K562S (doxorubicin-sensitive K562) chronic myelogenous leukemia cells. Put plainly: MTS cell viability assay, K562S cells. The class given is cell-based, human. The procedure:
K562 (ATCC®, CCL-243, described here as K562S to indicate sensitivity to doxorubicin), a human chronic myelogenous leukemia cell line, was obtained from American Type Culture Collection (Manassas, VA, USA). A doxorubicin-resistant cell line (K562R, also known as K562/Adr) was kindly provided by the IRSET institute (Research Institute for Environmental and Occupational Health, INSERM, University of Rennes 1, France). The cells were maintained at 37 °C and 5% CO2 in Gibco™ 1640 Roswell Park Memorial Institute (RPMI-1640) medium containing 10% fetal bovine serum (FBS) (Life Technologies^TM, Thermo Fisher Scientific, Waltham, MA, USA).
Cell viability was evaluated with the MTS (3-(4,5-dimethylthiazol-2-yl)-5-(3-carboxymethoxyphenyl)-2-(4-sulfophenyl)-2H-tetrazolium) reduction kit, (CellTiter 96 Aqueous Non-Radioactive Cell Proliferation Assay, Promega, Fitchburg, WI, USA), according to the instructions of the manufacturer. […] Further details on experimental conditions used can be found in Delehouzé et al. 2017 [47].
(Tetrazolium dyes change colour on reduction, which living cells bring about.)

For a further series, the target named is T1, Haspin (Homo sapiens, UniProt Q8TF76).
T1 sequence (Q8TF76 1-798): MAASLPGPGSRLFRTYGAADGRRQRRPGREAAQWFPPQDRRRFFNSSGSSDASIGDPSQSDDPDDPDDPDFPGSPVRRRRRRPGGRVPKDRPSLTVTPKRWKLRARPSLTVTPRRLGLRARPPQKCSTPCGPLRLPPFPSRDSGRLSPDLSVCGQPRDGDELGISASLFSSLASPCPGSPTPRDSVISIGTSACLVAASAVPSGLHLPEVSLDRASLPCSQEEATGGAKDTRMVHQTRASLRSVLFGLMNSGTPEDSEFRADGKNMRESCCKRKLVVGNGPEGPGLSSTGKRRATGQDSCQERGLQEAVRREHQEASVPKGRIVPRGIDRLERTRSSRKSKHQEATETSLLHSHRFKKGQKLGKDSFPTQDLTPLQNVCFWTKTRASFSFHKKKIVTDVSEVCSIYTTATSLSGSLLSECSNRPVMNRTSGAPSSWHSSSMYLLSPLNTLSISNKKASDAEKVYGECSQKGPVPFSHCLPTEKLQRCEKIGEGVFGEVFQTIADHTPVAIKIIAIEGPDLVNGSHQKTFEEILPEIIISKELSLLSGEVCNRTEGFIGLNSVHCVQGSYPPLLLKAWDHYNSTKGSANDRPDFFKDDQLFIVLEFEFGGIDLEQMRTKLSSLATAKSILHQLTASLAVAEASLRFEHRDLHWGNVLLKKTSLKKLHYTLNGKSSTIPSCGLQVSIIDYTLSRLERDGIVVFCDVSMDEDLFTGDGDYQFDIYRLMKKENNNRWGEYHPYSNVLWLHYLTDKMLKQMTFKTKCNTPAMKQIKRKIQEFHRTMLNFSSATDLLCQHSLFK
Description: ADP-Glo protein kinase assay, Haspin. The conditions noted are these: 10 µM ATP, normalized to DMSO control, mean n = 2. The series is classed as biochemical. How it is done: as §1

The target in the next series is GSK-3β (Homo sapiens, UniProt P49841). Description: ADP-Glo protein kinase assay, GSK-3β. The series is classed as biochemical. The following applies: for % of kinase activity that remained, GSK-3β: 10 µM ATP, normalized to DMSO control, mean n = 2. How it is done:
as §1

A further series addresses VEGFR2 (Homo sapiens, UniProt P35968). Put plainly: ADP-Glo protein kinase assay, VEGFR2. The series is classed as biochemical. How it is done: as §1
Series [3] deals with K562R (doxorubicin-resistant K562) chronic myelogenous leukemia cells. Description: MTS cell viability assay, K562R cells. The class given is cell-based. The following applies: Homo sapiens, K-562R, 48 h exposure, n = 3.
The mark [4] stands for this setting: betulin purified from Acacia auriculiformis at 10 µg/mL.
The mark [5] stands for this setting: betulin purified from Acacia auriculiformis at 1 µg/mL.

As a reminder, the inhibition is the drop in the measured response relative to a control, in per cent. For orientation: IC50 means the concentration needed to halve the response being measured. A higher IC50 goes with weaker potency in that assay.

Sequence of Pim1 (P11309 whole entry): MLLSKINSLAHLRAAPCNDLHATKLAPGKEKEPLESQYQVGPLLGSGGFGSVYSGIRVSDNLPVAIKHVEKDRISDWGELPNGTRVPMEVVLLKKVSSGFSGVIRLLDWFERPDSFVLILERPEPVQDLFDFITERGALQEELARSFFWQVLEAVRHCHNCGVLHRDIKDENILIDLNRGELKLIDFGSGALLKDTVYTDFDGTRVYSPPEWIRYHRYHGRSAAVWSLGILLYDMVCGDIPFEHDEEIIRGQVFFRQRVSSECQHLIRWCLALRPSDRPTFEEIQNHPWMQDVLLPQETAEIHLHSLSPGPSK
Sequence of GSK-3β (P49841 whole entry): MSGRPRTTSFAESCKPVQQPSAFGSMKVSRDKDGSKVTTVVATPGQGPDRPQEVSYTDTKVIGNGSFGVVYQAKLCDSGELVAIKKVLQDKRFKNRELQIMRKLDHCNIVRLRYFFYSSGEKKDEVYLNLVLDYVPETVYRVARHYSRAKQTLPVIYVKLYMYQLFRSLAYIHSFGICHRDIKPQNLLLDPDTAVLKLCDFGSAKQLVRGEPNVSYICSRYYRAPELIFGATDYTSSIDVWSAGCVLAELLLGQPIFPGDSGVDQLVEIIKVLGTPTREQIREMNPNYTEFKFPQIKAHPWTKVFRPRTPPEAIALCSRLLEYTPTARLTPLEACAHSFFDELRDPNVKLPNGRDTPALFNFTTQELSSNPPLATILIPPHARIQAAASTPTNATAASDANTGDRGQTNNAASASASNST
Sequence of VEGFR2 (P35968 20-1356): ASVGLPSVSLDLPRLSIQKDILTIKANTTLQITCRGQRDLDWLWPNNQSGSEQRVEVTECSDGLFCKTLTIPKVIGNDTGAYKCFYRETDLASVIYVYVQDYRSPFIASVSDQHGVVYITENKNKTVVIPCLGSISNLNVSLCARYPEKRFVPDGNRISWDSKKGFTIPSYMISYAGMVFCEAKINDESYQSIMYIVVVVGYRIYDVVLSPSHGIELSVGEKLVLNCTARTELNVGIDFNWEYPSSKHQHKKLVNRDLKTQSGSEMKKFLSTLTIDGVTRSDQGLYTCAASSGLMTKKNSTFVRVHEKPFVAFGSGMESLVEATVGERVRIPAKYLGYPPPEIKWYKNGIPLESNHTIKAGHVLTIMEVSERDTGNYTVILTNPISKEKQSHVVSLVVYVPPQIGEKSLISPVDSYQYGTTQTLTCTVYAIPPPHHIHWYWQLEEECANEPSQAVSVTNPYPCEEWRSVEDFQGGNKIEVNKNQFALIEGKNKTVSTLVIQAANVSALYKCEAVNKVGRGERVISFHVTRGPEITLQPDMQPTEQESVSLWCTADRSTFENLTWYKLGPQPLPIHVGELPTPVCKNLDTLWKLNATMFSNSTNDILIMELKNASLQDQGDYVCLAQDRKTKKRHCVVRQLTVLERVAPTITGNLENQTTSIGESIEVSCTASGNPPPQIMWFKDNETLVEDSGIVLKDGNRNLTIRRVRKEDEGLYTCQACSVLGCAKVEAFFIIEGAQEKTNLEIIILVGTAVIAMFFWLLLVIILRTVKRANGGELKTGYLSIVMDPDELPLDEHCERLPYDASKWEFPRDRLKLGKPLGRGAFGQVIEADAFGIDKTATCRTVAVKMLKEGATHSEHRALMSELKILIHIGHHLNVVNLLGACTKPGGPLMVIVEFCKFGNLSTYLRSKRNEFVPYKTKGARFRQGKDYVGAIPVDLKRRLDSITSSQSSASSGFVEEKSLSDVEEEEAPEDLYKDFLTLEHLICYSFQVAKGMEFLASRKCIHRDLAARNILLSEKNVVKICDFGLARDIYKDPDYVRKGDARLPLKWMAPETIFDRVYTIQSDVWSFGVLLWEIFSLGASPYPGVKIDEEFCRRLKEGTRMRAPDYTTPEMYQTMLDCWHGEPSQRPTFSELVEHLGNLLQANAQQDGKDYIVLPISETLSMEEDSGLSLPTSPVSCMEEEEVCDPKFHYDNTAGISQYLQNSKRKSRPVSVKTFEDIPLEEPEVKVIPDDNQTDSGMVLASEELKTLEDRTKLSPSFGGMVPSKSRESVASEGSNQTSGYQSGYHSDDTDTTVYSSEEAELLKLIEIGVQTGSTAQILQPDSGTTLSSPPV

Take `C=C(C)[C@@H]1CC[C@]2(CO)CC[C@]3(C)[C@H](CC[C@@H]4[C@@]5(C)CC[C@H](O)C(C)(C)[C@@H]5CC[C@]43C)[C@@H]12` [Betulin, 3-lup-20(29)-ene-3β,28-diol]: the “% of kinase activity that remained, Pim1” value at Pim1 (betulin purified from Acacia auriculiformis at 1 µg/mL, ≥100 = no detectable inhibition) was ≥100%; at Pim1 (setting [4]), 90%. At Pim1 (read-out: inhibition of kinase activity, Pim1), the inhibition at 10 µg/mL amounted to 10%. Further, the solubility in water in series [1] was 0.08 μg/mL and 0.18 µM. In addition, the IC50 came out at 16.5 µM in series [2] (Homo sapiens, K562, 48 h exposure, n = 3); 1.06 µM at GSK-3β; 2.45 µM on VEGFR2; 13.5 µM in series [3]. For the same molecule, the “effects on K562S cell viability when cells co-treated with z-VAD-fmk” value in series [2] (betulin 1-50 µM with 20 µM z-VAD-fmk (pan-inhibitor of caspases), 48 h) is recorded as “not significantly altered”. The “% of kinase activity that remained, Haspin” value at Haspin (setting [5]) stood at 72%; on Haspin (setting [4]), 91%. Besides, the “% of kinase activity that remained, GSK-3β” value at GSK-3β (setting [5]) turned out to be 38%; on GSK-3β (setting [4]), 30%.
